Measurements from patent publication US12281122B1, “PI3K inhibitors” (Cogent Biosciences, Inc., priority 2023, dated 2025).

Experiments:
[1] = system: SKBR3 (PI3Kα-Wild Type) cell line; experiment: HTRF phospho-AKT(S473) cell assay in SKBR3 cells; type: cell-based, human; conditions: Homo sapiens, SK-BR-3; HTRF phospho-AKT(S473), SKBR3 (PI3Kα-Wild Type) cells, 2 hours compound incubation, PDGF-BB stimulated
Outline: (§1)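 Cells plated overnight (T47D in RPMI/10% FBS/0.2 units/mL insulin; SKBR3 in McCoy's 5A/10% FBS), then given 12-point 1:3 compound series (top 5 μM T47D, 10 μM SKBR3; ≤0.5% DMSO) for 2 h at 37° C. SKBR3 stimulated with 70 ng/ml PDGF-BB for final 15 min. Lysate pAKT(S473) by HTRF; IC50 calculated.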

[2] = system: T47D (PI3Kα-H1047R) cell line; experiment: HTRF phospho-AKT(S473) cell assay in T47D cells; type: cell-based, human; conditions: Homo sapiens; HTRF phospho-AKT(S473), T47D (PI3Kα-H1047R) cells, 2 hours compound incubation
Outline: as §1

Row | SMILES | IC50 [1] [µM] | IC50 [2] [µM]
1 | Cc1cc([C@@H](C)Nc2ccc(Cl)nc2C(=O)NS(C)(=O)=O)c2nc(N3C[C@@H]4C(c5ccnc(C)c5F)[C@@H]4C3)n(C)c(=O)c2c1 (stereo partly drawn) [Compound 763, 6-chloro-3-(((1R)-1-(2-((1R,5S)-6-(3-fluoro-2-methylpyridin-4-yl)-3-azabicyclo[3.1.0]hexan-3-yl)-3,6-dimethyl-4-oxo-3,4-dihydroquinazolin-8-yl)ethyl)amino)-N-(methylsulfonyl) picolinamide] | 1 to 5 | 0.25 to 0.5
2 | Cc1cc([C@@H](C)Nc2ccc(Cl)nc2C(=O)NS(C)(=O)=O)c2nc(N3CCn4nccc4C3)n(C)c(=O)c2c1 [Compound 765, (R)-6-chloro-3-((1-(2-(6,7-dihydropyrazolo[1,5-a]pyrazin-5(4H)-yl)-3,6-dimethyl-4-oxo-3,4-dihydroquinazolin-8-yl)ethyl)amino)-N-(methylsulfonyl) picolinamide] | 1 to 5 | 0.25 to 0.5
3 | Cc1cc([C@@H](C)Nc2ccc(Cl)nc2C(=O)NS(C)(=O)=O)c2nc(N3C[C@H]4C[C@@H]3C[C@H]4c3nn(C)cc3F)n(C)c(=O)c2c1 [Compound 766, 6-chloro-3-(((R)-1-(2-((1R,4S,5R)-5-(4-fluoro-1-methyl-1H-pyrazol-3-yl)-2-azabicyclo[2.2.1]heptan-2-yl)-3,6-dimethyl-4-oxo-3,4-dihydroquinazolin-8-yl)ethyl)amino)-N-(methylsulfonyl) picolinamide] | ≥ 5 | 0.25 to 0.5
4 | Cc1cc([C@@H](C)Nc2ccc(Cl)nc2C(=O)NS(C)(=O)=O)c2nc(N3C[C@H]4C[C@@H]3CN4c3ncc(C#N)cc3F)n(C)c(=O)c2c1 [Compound 767, 6-chloro-3-(((R)-1-(2-((1R,4R)-5-(5-cyano-3-fluoropyridin-2-yl)-2,5-diazabicyclo [2.2.1]heptan-2-yl)-3,6-dimethyl-4-oxo-3,4-dihydroquinazolin-8-yl)ethyl)amino)-N-(methylsulfonyl) picolinamide] | ≥ 5 | 0.25 to 0.5
5 | Cc1cc([C@@H](C)Nc2ccc(Cl)nc2C(=O)NS(C)(=O)=O)c2nc(N3CCN(c4nc(C(F)F)ncc4F)CC3)n(C)c(=O)c2c1 [Compound 772, (R)-6-chloro-3-((1-(2-(4-(2-(difluoromethyl)-5-fluoropyrimidin-4-yl)piperazin-1-yl)-3,6-dimethyl-4-oxo-3,4-dihydroquinazolin-8-yl)ethyl)amino)-N-(methylsulfonyl) picolinamide] | ≥ 5 | < 0.25
6 | Cc1cc([C@@H](C)Nc2ccc(Cl)nc2C(=O)NS(C)(=O)=O)c2nc(-c3ccc(C4(C#N)CC4)cc3)n(C)c(=O)c2c1 [Compound 773, (R)-6-chloro-3-((1-(2-(4-(1-cyanocyclopropyl)phenyl)-3,6-dimethyl-4-oxo-3,4-dihydroquinazolin-8-yl)ethyl)amino)-N-(methylsulfonyl) picolinamide] | 1 to 5 | < 0.25
7 | Cc1cc([C@@H](C)Nc2ccc(Cl)nc2C(=O)NS(C)(=O)=O)c2nc(-c3ccc4c(cnn4C)c3)n(C)c(=O)c2c1 [Compound 774, (R)-6-chloro-3-((1-(3,6-dimethyl-2-(1-methyl-1H-indazol-5-yl)-4-oxo-3,4-dihydroquinazolin-8-yl)ethyl)amino)-N-(methylsulfonyl) picolinamide] | 0.5 to 1 | < 0.25
8 | Cc1cc([C@@H](C)Nc2ccc(Cl)nc2C(=O)NS(C)(=O)=O)c2nc(-c3ccc4nn(C)cc4c3)n(C)c(=O)c2c1 [Compound 775, (R)-6-chloro-3-((1-(3,6-dimethyl-2-(2-methyl-2H-indazol-5-yl)-4-oxo-3,4-dihydroquinazolin-8-yl)ethyl)amino)-N-(methylsulfonyl) picolinamide] | 1 to 5 | < 0.25
9 | Cc1cc([C@@H](C)Nc2ccc(Cl)nc2C(=O)NS(C)(=O)=O)c2nc(-c3ccc4c(c3)C(=O)N(C)C4)n(C)c(=O)c2c1 [Compound 776, (R)-6-chloro-3-((1-(3,6-dimethyl-2-(2-methyl-3-oxoisoindolin-5-yl)-4-oxo-3,4-dihydroquinazolin-8-yl)ethyl)amino)-N-(methylsulfonyl) picolinamide] | 1 to 5 | 0.25 to 0.5
10 | Cc1cc([C@@H](C)Nc2ccc(Cl)nc2C(=O)NS(C)(=O)=O)c2nc(-c3cccc(Cl)c3Cl)n(C)c(=O)c2c1 [Compound 777, (R)-6-chloro-3-((1-(2-(2,3-dichlorophenyl)-3,6-dimethyl-4-oxo-3,4-dihydroquinazolin-8-yl)ethyl)amino)-N-(methylsulfonyl) picolinamide] | ≥ 5 | 0.5 to 1
11 | CC(=O)N1CCN(c2ccc(-c3nc4c([C@@H](C)Nc5ccc(Cl)nc5C(=O)NS(C)(=O)=O)cc(C)cc4c(=O)n3C)cc2F)CC1 [Compound 778, (R)-3-((1-(2-(4-(4-acetylpiperazin-1-yl)-3-fluorophenyl)-3,6-dimethyl-4-oxo-3,4-dihydroquinazolin-8-yl)ethyl)amino)-6-chloro-N-(methylsulfonyl) picolinamide] | 1 to 5 | < 0.25
12 | Cc1cc([C@@H](C)Nc2ccc(Cl)nc2C(=O)NS(C)(=O)=O)c2nc(-c3ccc4c(c3)C(=O)N(C)CC4)n(C)c(=O)c2c1 [Compound 779, (R)-6-chloro-3-((1-(3,6-dimethyl-2-(2-methyl-1-oxo-1,2,3,4-tetrahydroisoquinolin-7-yl)-4-oxo-3,4-dihydroquinazolin-8-yl)ethyl)amino)-N-(methylsulfonyl) picolinamide] | 1 to 5 | < 0.25
13 | CC(=O)N1CCC(c2ccc(-c3nc4c([C@@H](C)Nc5ccc(Cl)nc5C(=O)NS(C)(=O)=O)cc(C)cc4c(=O)n3C)c(F)c2)CC1 [Compound 780, (R)-3-((1-(2-(4-(1-acetylpiperidin-4-yl)-2-fluorophenyl)-3,6-dimethyl-4-oxo-3,4-dihydroquinazolin-8-yl)ethyl)amino)-6-chloro-N-(methylsulfonyl) picolinamide] | 1 to 5 | < 0.25
14 | Cc1cc([C@@H](C)Nc2ccc(Cl)nc2C(=O)NS(C)(=O)=O)c2nc(-c3ccc4nn(C)nc4c3)n(C)c(=O)c2c1 [Compound 781, (R)-6-chloro-3-((1-(3,6-dimethyl-2-(2-methyl-2H-benzo[d][1,2,3]triazol-5-yl)-4-oxo-3,4-dihydroquinazolin-8-yl)ethyl)amino)-N-(methylsulfonyl) picolinamide] | 1 to 5 | < 0.25
15 | CC(=O)N1CCC(c2ccc(-c3nc4c([C@@H](C)Nc5ccc(Cl)nc5C(=O)NS(C)(=O)=O)cc(C)cc4c(=O)n3C)cc2)CC1 [Compound 782, (R)-3-((1-(2-(4-(1-acetylpiperidin-4-yl)phenyl)-3,6-dimethyl-4-oxo-3,4-dihydroquinazolin-8-yl)ethyl)amino)-6-chloro-N-(methylsulfonyl) picolinamide] | 1 to 5 | < 0.25
16 | Cc1cc([C@@H](C)Nc2ccc(Cl)nc2C(=O)NS(C)(=O)=O)c2nc(-c3ccc4c(cnn4CC(F)(F)F)c3)n(C)c(=O)c2c1 [Compound 783, (R)-6-chloro-3-((1-(3,6-dimethyl-4-oxo-2-(1-(2,2,2-trifluoroethyl)-1H-indazol-5-yl)-3,4-dihydroquinazolin-8-yl)ethyl)amino)-N-(methylsulfonyl) picolinamide] | 1 to 5 | < 0.25
17 | Cc1cc([C@@H](C)Nc2ccc(Cl)nc2C(=O)NS(C)(=O)=O)c2nc(-c3ccc4nn(CC(F)(F)F)cc4c3)n(C)c(=O)c2c1 [Compound 784, (R)-6-chloro-3-((1-(3,6-dimethyl-4-oxo-2-(2-(2,2,2-trifluoroethyl)-2H-indazol-5-yl)-3,4-dihydroquinazolin-8-yl)ethyl)amino)-N-(methylsulfonyl) picolinamide] | 1 to 5 | < 0.25
18 | CC(=O)N1CCN(c2ccc(-c3nc4c([C@@H](C)Nc5ccc(Cl)nc5C(=O)NS(C)(=O)=O)cc(C)cc4c(=O)n3C)c(F)c2)CC1 [Compound 785, (R)-3-((1-(2-(4-(4-acetylpiperazin-1-yl)-2-fluorophenyl)-3,6-dimethyl-4-oxo-3,4-dihydroquinazolin-8-yl)ethyl)amino)-6-chloro-N-(methylsulfonyl) picolinamide] | 1 to 5 | < 0.25
19 | CC(=O)N1CCC(c2ccc(-c3nc4c([C@@H](C)Nc5ccc(Cl)nc5C(=O)NS(C)(=O)=O)cc(C)cc4c(=O)n3C)cc2F)CC1 [Compound 786, (R)-3-((1-(2-(4-(1-acetylpiperidin-4-yl)-3-fluorophenyl)-3,6-dimethyl-4-oxo-3,4-dihydroquinazolin-8-yl)ethyl)amino)-6-chloro-N-(methylsulfonyl) picolinamide] | 1 to 5 | < 0.25
20 | Cc1cc([C@@H](C)Nc2ccc(Cl)nc2C(=O)NS(C)(=O)=O)c2nc(-c3ccc(-c4ccn(C)n4)c(F)c3)n(C)c(=O)c2c1 [Compound 787, (R)-6-chloro-3-((1-(2-(3-fluoro-4-(1-methyl-1H-pyrazol-3-yl)phenyl)-3,6-dimethyl-4-oxo-3,4-dihydroquinazolin-8-yl)ethyl)amino)-N-(methylsulfonyl) picolinamide] | 1 to 5 | < 0.25
21 | Cc1cc([C@@H](C)Nc2ccc(Cl)nc2C(=O)NS(C)(=O)=O)c2nc(-c3cc(F)c4nn(C)cc4c3)n(C)c(=O)c2c1 [Compound 788, (R)-6-chloro-3-((1-(2-(7-fluoro-2-methyl-2H-indazol-5-yl)-3,6-dimethyl-4-oxo-3,4-dihydroquinazolin-8-yl)ethyl)amino)-N-(methylsulfonyl) picolinamide] | 1 to 5 | < 0.25
